Experimental data as given in PMC7689835 (Journal of Clinical Pharmacology, 2020).

Columns and labels:
[1] = Observed plasma PK in clinical studies; assay type: in vivo, human; conditions: for geometric mean ratio of AC886 AUC0-24,ss to quizartinib AUC0-24,ss: noncompartmental analysis
[2] = Population PK model of quizartinib; assay type: in vivo, human
[3] = cited from earlier work
[4] = cited from earlier work; remark: listed apart in the source
[5] = Population PK model of AC886; assay type: in vivo, human
FLT3 kinase = conditions: read-out: dissociation constant (Kd); cited from earlier work
[6] = before relative F1 for patients was incorporated into the model
[7] = interoccasion variability, occasion 1
[8] = interoccasion variability, occasion 2
[9] = interoccasion variability, occasion 3
[10] = interoccasion variability, occasion 4

CC(C)(C)c1cc(NC(=O)Nc2ccc(-c3cn4c(n3)sc3cc(OCCN5CCOCC5)ccc34)cc2)no1 [quizartinib]
Tmax ([1]; human, plasma, oral, observed Tmax, patients with AML): ~2 h
increase in CL in patients with AML (initial characterization) [2, 6]: 75%
increase in Vc in patients with AML (initial characterization) [2, 6]: 36%
increase in Vp1 in patients with AML (initial characterization) [2, 6]: 102%
effect of eGFR on quizartinib CL ([2]; covariate test and sensitivity analysis): No significant effect
Magnitude of interindividual variability in ALAG1 ([2]; final estimate): 62.0% CV
Magnitude of interindividual variability in CL ([2]; final estimate): 55.1% CV
Magnitude of interindividual variability in D1 ([2]; final estimate): 69.3% CV
Magnitude of interindividual variability in F1 ([2]; final estimate): 34.8% CV
Magnitude of interindividual variability in Ka ([2]; final estimate): 38.5% CV
Magnitude of interindividual variability in Q1 ([2]; final estimate): 24.8% CV
Magnitude of interindividual variability in Vc ([2]; final estimate): 27.6% CV
Magnitude of interindividual variability in Vp1 ([2]; final estimate): 39.7% CV
decrease in CL with strong CYP3A inhibitor use ([2]; final model): 44.1%
increase in CL for patients with AML versus healthy volunteers ([2]; final model): 8.2%
increase in F1 with strong CYP3A inhibitor use ([2]; final model): 13.6%
reduction in bioavailability for patients with AML versus healthy volunteers ([2]; final model): 40.1%
Vd ([2]; human, plasma, oral): 194 L
IOV in CL on occasion 1 [2, 7]: 40.9% CV
IOV in F1 on occasion 1 [2, 7]: 22.6% CV
IOV in Vc on occasion 1 [2, 7]: 20.3% CV
IOV in CL on occasion 2 [2, 8]: 40.9% CV
IOV in Vc on occasion 2 [2, 8]: 20.3% CV
IOV in CL on occasion 3 [2, 9]: 40.9% CV
IOV in F1 on occasion 3 [2, 9]: 22.6% CV
IOV in Vc on occasion 3 [2, 9]: 20.3% CV
IOV in CL on occasion 4 [2, 10]: 40.9% CV
IOV in Vc on occasion 4 [2, 10]: 20.3% CV
ALAG1 (absorption lag time) ([2]; population mean): 0.205 h
CL (apparent clearance for parent) ([2]; population mean): 2.77 L/h
D1 (duration of zero-order input to depot compartment) ([2]; population mean): 0.708 h
F1 (fractional change in F1 for strong CYP3A inhibitors) ([2]; population mean): 0.136
F1 (fractional change in study 019 F1 for fed) ([2]; population mean): 0.0509
Q1 (exponent for BSA on Q1) ([2]; population mean): 0.970
Vc (exponent of [ALB/4.1] for Vc) ([2]; population mean): −0.725
Vc (exponent of [BSA/1.9] for Vc) ([2]; population mean): 1.46
Vp1 (exponent for BSA on Vp1) ([2]; population mean): 1.50
Vp1 (exponent for age on Vp1) ([2]; population mean): 0.453
Ka (first-order absorption constant for healthy participants) ([2]; population mean, healthy participants): 0.874 h⁻¹
Ka (first-order absorption constant for patients) ([2]; population mean, patients with AML): 1.68 h⁻¹
Ka (fractional change in Ka for fed status [019 only]) ([2]; population mean, study AC220-019, fed vs fasted): −0.512
decrease in ka under fed versus fasted conditions ([2]; study AC220-019): 51.2%
increase in F1 under fed versus fasted conditions ([2]; study AC220-019): 5.1%
increase in quizartinib exposure by strong CYP3A inhibitors ([3]; drug-drug interaction study with ketoconazole or fluconazole): approximately 2 fold
effect of lansoprazole on bioavailability ([3]; phase 1 study): did not result in a meaningful change

CCc1nc(C(N)=O)c(Nc2ccc(N3CCC(N4CCN(C)CC4)CC3)c(OC)c2)nc1NC1CCOCC1 [gilteritinib]
increase in exposure with strong CYP3A inhibitor itraconazole [4]: approximately 2.2 fold
decrease in exposure with strong CYP3A4 inducer rifampin ([4]; versus gilteritinib alone): 30%

CO[C@@H]1[C@H](N(C)C(=O)c2ccccc2)C[C@H]2O[C@]1(C)n1c3ccccc3c3c4c(c5c6ccccc6n2c5c31)C(=O)NC4 [midostaurin]
decrease in exposure with CYP3A4 induction by rifampicin [4]: > 10 fold
increase in exposure with CYP3A inhibition by ketoconazole [4]: > 10 fold

CC(C)(CO)c1cc(NC(=O)Nc2ccc(-c3cn4c(n3)sc3cc(OCCN5CCOCC5)ccc34)cc2)no1 [AC886]
FMET (fraction of quizartinib converted to AC886) ([5]; FIXED, based on AUC ratio in phase 2 study): 0.500
effect of mild or moderate hepatic impairment on PK ([5]; based on baseline liver function values): no effect
Magnitude of interindividual variability in Vcm ([5]; final estimate): 117% CV
increase in CLm with concomitant strong CYP3A inhibitor use ([5]; final model): 10.6%
increase in Vcm with concomitant strong CYP3A inhibitor use ([5]; final model): 192%
IIV in CLm in healthy volunteers ([5]; healthy volunteers): 45.9% CV
IIV in CLm in patients ([5]; patients with AML): 64.1% CV
CLm (apparent clearance for metabolite) ([5]; population mean): 4.09 L/h
CLm (fractional change in CLm for race black) ([5]; population mean): 0.586
CLm (fractional change in CLm for strong CYP3A inhibitors) ([5]; population mean): 0.106
CLm (power of BSA in CLm) ([5]; population mean): 1.60
Vcm (fractional change in Vcm for strong CYP3A inhibitors) ([5]; population mean): 1.92
median accumulation ratio ([1]; patients from the QuANTUM-R study, multiple daily doses): 8.4
geometric mean ratio of AC886 AUC0-24,ss to quizartinib AUC0-24,ss ([1]; study 2689-CL-2004, 30-mg cohort): 0.544
geometric mean ratio of AC886 AUC0-24,ss to quizartinib AUC0-24,ss ([1]; study 2689-CL-2004, 60-mg cohort): 0.485
Kd (FLT3 kinase): 1.1 nM
